Results from paper PMC4765733 (Journal of medicinal chemistry, 2015).

Experiments:
HIV-1LAI = assay: Antiviral MTT assay, MT-2 cells exposed to HIV-1LAI; assay type: cell-based; conditions: Human immunodeficiency virus 1, MT2, read-out: IC50 (antiviral activity)
[1] = test system: HIV-1ERS104pre (wild type); assay: Antiviral p24 Gag assay in PHA-PBMs, wild-type HIV-1ERS104pre; assay type: cell-based

SMILES	IC50 (HIV-1LAI) [nM]	EC50 fold better than APV [1] [fold]
CC(C)CN(C[C@@H](O)[C@H](Cc1ccccc1)NC(=O)O[C@H]1CO[C@H]2OCC[C@H]21)S(=O)(=O)c1ccc(N)cc1 [Darunavir]	3	
COc1ccc(S(=O)(=O)N(CC(C)C)C[C@@H](O)[C@H](Cc2cccc(-c3ccccc3OC)c2)NC(=O)O[C@H]2CO[C@H]3OCC[C@H]32)cc1 [Inhibitor 21e, (3R,3aS,6aR)-hexahydrofuro[2,3-b]furan-3-yl-((2S,3R)-3-hydroxy-4-(N-isobutyl-4-methoxyphenylsulfonamido)-1-(2'-methoxy-[1,1'-biphenyl]-3-yl)butan-2-yl)carbamate]		~10
